This passage reports IC50 results from US8124641B2, “Aminotetrahydroindazoloacetic acids” (Hoffmann-La Roche Inc., priority 2008, dated 2012).

This assay concerns the target T1, human CRTH2 (Homo sapiens, UniProt Q9Y5Y4).
T1 construct: expressed in transfected cells
T1 sequence (Q9Y5Y4 1-395): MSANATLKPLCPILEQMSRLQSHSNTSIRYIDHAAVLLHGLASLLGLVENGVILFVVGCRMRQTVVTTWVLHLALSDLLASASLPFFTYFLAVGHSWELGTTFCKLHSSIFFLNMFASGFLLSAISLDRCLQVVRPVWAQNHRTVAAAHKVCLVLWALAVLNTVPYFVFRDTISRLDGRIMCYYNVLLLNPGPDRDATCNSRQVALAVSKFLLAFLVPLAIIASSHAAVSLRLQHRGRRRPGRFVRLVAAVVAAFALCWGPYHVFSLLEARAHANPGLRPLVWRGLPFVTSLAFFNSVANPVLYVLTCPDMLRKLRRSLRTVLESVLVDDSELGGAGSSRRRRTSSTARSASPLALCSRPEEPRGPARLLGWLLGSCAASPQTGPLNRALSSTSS
Kind of assay: Human CRTH2 Receptor Binding Assay (whole cell, [3H]ramatroban competition). As to conditions: CHO-K1 cells stably expressing human CRTH2 and G-alpha16; 20 nM [3H]ramatroban; 1 hour, room temperature. An excerpt:
A whole cell receptor binding assay using [^3H]ramatroban as the competing radioactive ligand was employed to evaluate the compound binding activity to human CRTH2. The radioactive ligand [^3H]ramatroban was synthesized according to Sugimoto et. al. (Eur. J. Pharmacol. 524, 30-37, 2005) to a specific activity of 42 Ci/mmol.
A cell line stably expressing human CRTH2 was established by transfecting CHO-K1 cells with two mammalian expression vectors that harbored human CRTH2 and G-alpha16 cDNAs, respectively, using FuGene® 6 transfection reagent (from Roche). Stable clones expressing CRTH2 were selected by staining each clone with BM16 (BD Pharmingen™ from BD Biosciences, a division of Becton, Dickinson and Company), which is a rat monoclonal antibody to human CRTH2. The cells were maintained as monolayer cultures in Ham's F-12 medium containing 10% fetal bovine serum, 100 units/mL penicillin, 100 μg/mL streptomycin, 2 mM glutamine, 0.5 mg/mL G418 (geneticin) for CRTH2, and 0.2 mg/mL hygromycin-B (for G-alpha 16). For whole cell receptor binding assay, the monolayer cells were rinsed once with PBS (phosphate buffered saline), dissociated using ethylenediaminetetraacetate (Versene™ EDTA from Lonza Inc.), and suspended in PBS containing 10 mM MgCl2 and 0.06% BSA (bovine serum albumin) at 1.5×10^6 cells/mL.
The binding reactions (0.2 mL) were performed in 96-well plates at room temperature in PBS containing 1.5×10^5 cells, 10 mM MgCl2, 0.06% BSA, 20 nM [^3H]ramatroban, and test compound at various concentrations. After 1 hour of binding reactions, the cells were harvested on GF™/B filter microplates (microtiter plates with embedded glass fiber from PerkinElmer, Inc.) and washed 5 times with PBS using a Filtermate™ Harvester (a cell harvester that harvests and washes cells from microplates from PerkinElmer, Inc.). The radioactivities bound to the cells were determined using a microplate scintillation counter (TopCount® NXT, from PerkinElmer, Inc.) after adding 50 μL of Microscint™ 20 scintillation fluid (from PerkinElmer, Inc.) to each well of the filter plates. The radioactivity from non-specific binding was determined by replacing compound with 10 μM of 15(R)-15-methyl PGD2 (from Cayman Chemical Company) in the reaction mixtures. The radioactivity bound to the cells in the absence of compound (total binding) was determined by replacing compound with 0.25% of DMSO (dimethyl sulfoxide) in the reaction mixture. Specific binding data were obtained by subtracting the radioactivity of non-specific binding from each binding data.
The IC50 value is defined as the concentration of the tested compound that is required for 50% inhibition of total specific binding. In order to calculate the IC50 value, the percent inhibition data were determined for 7 concentrations for each compound. The percent inhibition for a compound at each concentration was calculated according to the following formula, [1−(specific binding in the presence of compound)/(total specific binding)]×100. The IC50 value was then obtained by fitting the percent inhibition data to a sigmoidal dose-response (4 parameter logistic) model in the XLfit® software Excel add-in program [from ID Business Solutions Ltd., model 205, where F(x)=(A+(B−A)/(1+((C/x)^D)))].
Regarding `O=C(O)Cn1ncc2c1CCC[C@H]2NS(=O)(=O)c1cc(Br)cc(C(F)(F)F)c1` [Example 1-1a, [(R)-4-(3-Bromo-5-trifluoromethyl-benzenesulfonylamino)-4,5,6,7-tetrahydro-indazol-1-yl]-acetic acid], the IC50 – broadly, the concentration that inhibits the measured activity by half – is 13 nM.
Molecule `O=C(O)Cn1ncc2c1CCCC2NS(=O)(=O)c1cc(Cl)cc(Cl)c1` (stereo not shown) [Example 1-2a, [4-(3,5-Dichloro-benzenesulfonylamino)-4,5,6,7-tetrahydro-indazol-1-yl]-acetic acid] registered a half-inhibitory concentration (IC50) of 386 nM. Against the preceding molecule, the IC50 is about 30-fold higher.
As to `O=C(O)Cn1ncc2c1CCCC2NS(=O)(=O)c1ccc(Cl)cc1Cl` (stereo not shown) [Example 1-3a, [4-(2,4-Dichloro-benzenesulfonylamino)-4,5,6,7-tetrahydro-indazol-1-yl]-acetic acid], the IC50 is 234 nM.
The value for `O=C(O)Cn1ncc2c1CCC[C@H]2NS(=O)(=O)c1cc(C(F)(F)F)cc(C(F)(F)F)c1` [Example 1-4a, [(R)-4-(3,5-Bis-trifluoromethyl-benzenesulfonylamino)-4,5,6,7-tetrahydro-indazol-1-yl]-acetic acid] was 16.4 nM; that for `Cc1ccc(S(=O)(=O)NC2CCCc3c2cnn3CC(=O)O)cc1[N+](=O)[O-]` (stereo not shown) [Example 1-5a, [4-(4-Methyl-3-nitro-benzenesulfonylamino)-4,5,6,7-tetrahydro-indazol-1-yl]-acetic acid] was 225 nM.
`Cc1cc(C)cc(S(=O)(=O)NC2CCCc3c2cnn3CC(=O)O)c1` (stereo not shown) [Example 1-6a, [4-(3,5-Dimethyl-benzenesulfonylamino)-4,5,6,7-tetrahydro-indazol-1-yl]-acetic acid] gave a 50% inhibitory concentration (IC50) of 397 nM. This IC50 is about 1.8-fold higher than that of the molecule before.
`O=C(O)Cn1ncc2c1CCCC2NS(=O)(=O)c1cc(Br)cc(C(F)(F)F)c1` (stereo not shown) [Example 1-7a, [4-(3-Bromo-5-trifluoromethyl-benzenesulfonylamino)-4,5,6,7-tetrahydro-indazol-1-yl]-acetic acid]: the IC50 was determined as 35.7 nM.
`O=C(O)Cn1ncc2c1CCCC2NS(=O)(=O)c1ccc(Br)c(F)c1` (stereo not shown) [Example 1-8a, [4-(4-Bromo-3-fluoro-benzenesulfonylamino)-4,5,6,7-tetrahydro-indazol-1-yl]-acetic acid] had an IC50 of 431 nM.
With `Cc1cc(S(=O)(=O)NC2CCCc3c2cnn3CC(=O)O)ccc1Br` (stereo not shown) [Example 1-9a, [4-(4-Bromo-3-methyl-benzenesulfonylamino)-4,5,6,7-tetrahydro-indazol-1-yl]-acetic acid] the figure was 277 nM.
`O=C(O)Cn1ncc2c1CCCC2NS(=O)(=O)c1ccc(Br)c(C(F)(F)F)c1` (stereo not shown) [Example 1-10a, [4-(4-Bromo-3-trifluoromethyl-benzenesulfonylamino)-4,5,6,7-tetrahydro-indazol-1-yl]-acetic acid] showed an IC50 of 119 nM.
The molecule `O=C(O)Cn1ncc2c1CCCC2NS(=O)(=O)c1cnc(Cl)c(Br)c1` (stereo not shown) [Example 1-11a, [4-(5-Bromo-6-chloro-pyridine-3-sulfonylamino)-4,5,6,7-tetrahydro-indazol-1-yl]-acetic acid] returned an IC50 of 291 nM.
Turning to `COc1cc(C(F)(F)F)cc(S(=O)(=O)N[C@@H]2CCCc3c2cnn3CC(=O)O)c1` [Example 1-12a, [(R)-4-(3-Methoxy-5-trifluoromethyl-benzenesulfonylamino)-4,5,6,7-tetrahydro-indazol-1-yl]-acetic acid], the IC50 was 53.3 nM. Compared with the last molecule, the IC50 is about 5.5-fold lower.
In turn, `O=C(O)Cn1ncc2c1CCCC2NS(=O)(=O)c1cc(C(F)(F)F)ccc1C(F)(F)F` (stereo not shown) [Example 1-13a, [4-(2,5-Bis-trifluoromethyl-benzenesulfonylamino)-4,5,6,7-tetrahydro-indazol-1-yl]-acetic acid] showed a half-inhibitory concentration (IC50) of 205 nM.
Turning to `CS(=O)(=O)c1cccc(S(=O)(=O)NC2CCCc3c2cnn3CC(=O)O)c1` (stereo not shown) [Example 1-14a, [4-(3-Methanesulfonyl-benzenesulfonylamino)-4,5,6,7-tetrahydro-indazol-1-yl]-acetic acid], the half-inhibitory concentration (IC50) came to 43.2 nM. This IC50 lies about 4.7-fold lower than the previous one.
Take `COc1ccc(S(=O)(=O)NC2CCCc3c2cnn3CC(=O)O)cc1C(F)(F)F` (stereo not shown) [Example 1-15a, [4-(4-Methoxy-3-trifluoromethyl-benzenesulfonylamino)-4,5,6,7-tetrahydro-indazol-1-yl]-acetic acid]: the half-inhibitory concentration (IC50) is 262 nM.
Turning to `CS(=O)(=O)c1cc(S(C)(=O)=O)cc(S(=O)(=O)N[C@@H]2CCCc3c2cnn3CC(=O)O)c1` [Example 1-16a, [(R)-4-(3,5-Bis-methanesulfonyl-benzenesulfonylamino)-4,5,6,7-tetrahydro-indazol-1-yl]-acetic acid], the 50% inhibitory concentration (IC50) turned out to be 5.9 nM.
Regarding `Cc1ccc(S(=O)(=O)NC2CCCc3c2cnn3CC(=O)O)cc1Cl` (stereo not shown) [Example 1-17a, [4-(3-Chloro-4-methyl-benzenesulfonylamino)-4,5,6,7-tetrahydro-indazol-1-yl]-acetic acid], the 50% inhibitory concentration (IC50) is 381 nM.
Regarding `O=C(O)CCn1ncc2c1CCC[C@H]2NS(=O)(=O)c1cc(C(F)(F)F)cc(C(F)(F)F)c1` [Example 1-18a, 3-[(R)-4-(3,5-Bis-trifluoromethyl-benzenesulfonylamino)-4,5,6,7-tetrahydro-indazol-1-yl]-propionic acid], the IC50 was 264 nM. This IC50 and that of the molecule before are within 1.5-fold of each other.
As to `CN([C@@H]1CCCc2c1cnn2CC(=O)O)S(=O)(=O)c1cc(C(F)(F)F)cc(C(F)(F)F)c1` [Example 2-1a, {(R)-4-[(3,5-Bis-trifluoromethyl-benzenesulfonyl)-methyl-amino]-4,5,6,7-tetrahydro-indazol-1-yl}-acetic acid], the IC50 came to 12.1 nM. This IC50 lies about 22-fold lower than the previous one.
Regarding `CN([C@@H]1CCCc2c1cnn2CC(=O)O)S(=O)(=O)c1ccc(Br)cc1Cl` [Example 2-2a, {(R)-4-[(4-Bromo-2-chloro-benzenesulfonyl)-methyl-amino]-4,5,6,7-tetrahydro-indazol-1-yl}-acetic acid], the IC50 stood at 97.8 nM.
As for `CN([C@@H]1CCCc2c1cnn2CC(=O)O)S(=O)(=O)c1ccc(C(F)(F)F)cc1Cl` [Example 2-3a, {(R)-4-[(2-Chloro-4-trifluoromethyl-benzenesulfonyl)-methyl-amino]-4,5,6,7-tetrahydro-indazol-1-yl}-acetic acid], the IC50 stood at 78.6 nM.
On to `CN([C@@H]1CCCc2c1cnn2CC(=O)O)S(=O)(=O)c1ccc(Br)cc1F` [Example 2-4a, {(R)-4-[(4-Bromo-2-fluoro-benzenesulfonyl)-methyl-amino]-4,5,6,7-tetrahydro-indazol-1-yl}-acetic acid], for which the IC50 amounted to 253 nM. Compared with the last molecule, the IC50 is about 3.2-fold higher.
In the case of `CN([C@@H]1CCCc2c1cnn2CC(=O)O)S(=O)(=O)c1cc(Br)cc(C(F)(F)F)c1` [Example 2-5a, {(R)-4-[(3-Bromo-5-trifluoromethyl-benzenesulfonyl)-methyl-amino]-4,5,6,7-tetrahydro-indazol-1-yl}-acetic acid], the IC50 is 11.2 nM.
As for `CN([C@@H]1CCCc2c1cnn2CC(=O)O)S(=O)(=O)c1cc(Br)cc(Br)c1` [Example 2-6a, {(R)-4-[(3,5-Dibromobenzenesulfonyl)-methyl-amino]-4,5,6,7-tetrahydro-indazol-1-yl}-acetic acid], the 50% inhibitory concentration (IC50) stood at 50.2 nM.
With `CN([C@@H]1CCCc2c1cnn2CC(=O)O)S(=O)(=O)c1cc(C(C)(C)C)cc(C(C)(C)C)c1` [Example 2-7a, {(R)-4-[(3,5-Di-tert-butyl-benzenesulfonyl)-methyl-amino]-4,5,6,7-tetrahydro-indazol-1-yl}-acetic acid] the figure was 166 nM.
